Experimental data published in patent US7037644B1, “Means and methods for monitoring non-nucleoside reverse transcriptase inhibitor antiretroviral therapy and guiding therapeutic decisions in the treatment of HIV/AIDS” (ViroLogic, Inc., priority 1998, dated 2006).
“And” between values parts separate entries of the source, which are not always exact repeats. Equal entries are not always repeated. “Also recorded” adds a separate entry of the source.

Columns and labels:
Assay type in all cases: cell-based, HIV-1
[1] = test system: RTV-1033, patient 98-1033 (RT V106A, V189L, F227L); experiment: Phenotypic susceptibility assay (patient RTV); settings: patient RTV pool
Description: (§1) The resistance test vectors containing a functional luciferase gene cassette were constructed and host cells were transfected with the resistance test vector DNA. The resistant test vectors contained patient-derived reverse transcriptase and protease sequences that were either susceptible or resistant to the antiretroviral agents, such as nucleoside reverse transcriptase inhibitors, non-nucleoside reverse transcriptase inhibitors and protease inhibitors. The resistance test vector viral particles produced by transfecting the resistance test vector DNA into host cells, either in the presence or absence of protease inhibitors, were used to infect target host cells grown either in the absence of NRTI or NNRTI or in the presence of increasing concentrations of the drug. The amount of luciferase activity produced in infected target host cells in the presence of drug was compared to the amount of luciferase produced in infected target host cells in the absence of drug. Drug resistance was measured as the amount of drug required to inhibit by 50% the luciferase activity detected in the absence of drug (inhibitory concentration 50%, IC50). The IC50 values were determined by plotting percent drug inhibition vs. log10 drug concentration.
(§2) Host cells were seeded in 10-cm-diameter dishes and were transfected several days after plating with resistance test vector plasmid DNA and the envelope expression vector. Transfections were performed using a calcium-phosphate precipitation procedure. The cell culture media containing the DNA precipitate was replaced with fresh medium, from one to 24 hours, after transfection. Cell culture media containing resistance test vector viral particles was harvested one to four days after transfection and was passed through a […] filter before being stored at […]. HIV capsid protein (p24) levels in the harvested cell culture media were determined by an EIA method as described by the manufacturer (SIAC; Frederick, Md.). Before infection, target cells (293 and 293/T) were plated in cell culture media. Control infections were performed using cell culture media from mock transfections (no DNA) or transfections containing the resistance test vector plasmid DNA without the envelope expression plasmid. One to three or more days after infection the media was removed and cell lysis buffer (Promega) was added to each well. Cell lysates were assayed for luciferase activity (FIG. 3). The inhibitory effect of the drug was determined using the following equation: % luciferase inhibition=1−(RLUluc [drug]÷RLUluc)×100 where RLUluc [drug] is the relative light unit of luciferase activity in infected cells in the presence of drug and RLUluc is the Relative Light Unit of luciferase activity in infected cells in the absence of drug. IC50 values were obtained from the sigmoidal curves that were generated from the data by plotting the percent inhibition of luciferase activity vs. the log10 drug concentration. The drug inhibition curves are shown in (FIG. 3).
A resistance test vector was constructed as described in Example 1 from a patient sample designated 98-1033. […]

P236L-RTV = experiment: Phenotypic susceptibility assay (site directed mutant RTV); settings: P236L alone vs wild type reference RTV; also statements 'codon 236 alone or in combination'
Description: as §1, §2
(§3) Genotypic changes that are observed to correlate with changes in phenotypic patterns of drug susceptibility are evaluated by construction of resistance test vectors containing the specific mutation on a defined, wild-type (drug susceptible) genetic background. Mutations may be incorporated alone and/or in combination with other known drug resistance mutations that are thought to modulate the susceptibility of HIV to a certain drug or class of drugs. Mutations are introduced into the resistance test vector through any of the widely known methods for site-directed mutagenesis. In one embodiment of this invention the mega-primer PCR method for site-directed mutagenesis is used. […]

[2] = test system: RTV with P225H plus K103N, Y181C or both; experiment: as above; settings: P225H with K103N and/or Y181C vs RTV lacking P225H; also statements 'codon 225 alone or in combination with 103'
Description: as §1, §2, §3

Y181I-RTV = experiment: as above; settings: for loss of susceptibility (fold, IC50) vs wild type control RTV: Y181I alone; for change in susceptibility: mutation at codon 181 (isoleucine)
Description: as §1, §2
The Y181I mutationwas introduced into the resistance test vector using the mega-primer method for site-directed mutagenesis (Sakar and Sommar, Ibid). A resistance test vector containing the Y181I mutation (Y181I-RTV) was then tested using the phenotypic assay described earlier and the results were compared to those determined using a genetically defined resistance test vector that was wild type at position 181. We determined the pattern of phenotypic susceptibility to the NNRTIs, delavirdine, nevirapine and efavirenz, in the Y181I-RTV.

Y181C-RTV = experiment: as above; settings: for change in susceptibility: Y181C, FIG. 5
Description: as §1, with “Drug resistance was measured as the amount of drug required to inhibit by 50% the luciferase activity detected in the absence of drug (inhibitory concentration 50%, IC50).” left out
Host cells were seeded in 10-cm-diameter dishes and were transfected several days after plating with resistance test vector plasmid DNA and the envelope expression vector. […] HIV capsid protein (p24) levels in the harvested cell culture media were determined by an EIA method as described by the manufacturer (SIAC; Frederick, Md.). […] The inhibitory effect of the drug was determined using the following equation: % luciferase inhibition=1−(RLUluc [drug]÷RLUluc)×100 where RLUluc [drug] is the relative light unit of luciferase activity in infected cells in the presence of drug and RLUluc is the Relative Light Unit of luciferase activity in infected cells in the absence of drug. […]
The Y181C and A98G mutations were introduced alone and in combination into resistance test vectors using the mega-primer method for site-directed mutagenesis (Sakar and Sommar, Ibid.). […] We determined the pattern of phenotypic susceptibility to the NNRTIs, delavirdine, neviraphine and efavirenz, in the three vectors. […]

K101E-G190A-RTV = experiment: as above; settings: for change in susceptibility (fold, IC50) vs wild type control RTV: K101E and G190A; for change in susceptibility: mutations at codons 101 and 190 (190A)
Description: as §1, §2
(§4) The K101E, K103N and G190A mutations were introduced alone and in combination into resistance test vectors using the mega-primer method for site-directed mutagenesis (Sakar and Sommar, Ibid.).

K103N-G190A-RTV = experiment: as above; settings: for loss of susceptibility (fold, IC50) vs wild type control RTV: K103N and G190A; for change in susceptibility: mutations at codons 103 and 190
Description: as §1, §2, §4

SMILES | decrease in susceptibility (fold, IC50) [1] | change in susceptibility (P236L-RTV) | change in susceptibility [2] | loss of susceptibility (fold, IC50) vs wild type control RTV (Y181I-RTV) | change in susceptibility (Y181I-RTV) | change in susceptibility (Y181C-RTV) | change in susceptibility (fold, IC50) vs wild type control RTV (K101E-G190A-RTV) | change in susceptibility (K101E-G190A-RTV) | loss of susceptibility (fold, IC50) vs wild type control RTV (K103N-G190A-RTV) | change in susceptibility (K103N-G190A-RTV) | loss of susceptibility (fold, IC50) vs wild type control RTV (Y181C-RTV; Y181C alone)
CC(C)Nc1cccnc1N1CCN(C(=O)c2cc3cc(NS(C)(=O)=O)ccc3[nH]2)CC1 [delavirdine] | 30 fold | less susceptible; also recorded: significant reduction; also recorded: decreased susceptibility; also recorded: decrease | more susceptible; also recorded: increase; also recorded: decreases the amount of delavirdine resistance | 20 fold | moderate decrease | resistance | 2 fold | slight loss of susceptibility; also recorded: no change | 40 fold | slight loss of susceptibility; also recorded: moderate decrease | 
O=C1Nc2ccc(Cl)cc2[C@@](C#CC2CC2)(C(F)(F)F)O1 [efavirenz] | 200 fold | no effect | little or no change | 1.4 fold | no change |  | 120 fold | significant decrease | 215 fold | significant decrease | 3 fold and 4 fold
Cc1ccnc2c1NC(=O)c1cccnc1N2C1CC1 [nevirapine] | greater than 800 fold | no significant change; also recorded: little or no change; also recorded: little or no reduction; also recorded: no reduction | did not significantly change; also recorded: little or no change; also recorded: does not decrease; also recorded: no effect | 740 fold | significant decrease | resistance | greater than 800 fold | substantial decrease | greater than 800 fold | substantial decrease | 
